{"source": "patent US6933310B1", "about": "“Therapeutic agent for amyotrophic lateral sclerosis (ALS)” (Mitsubishi Pharma Corporation, priority 2000, dated 2005)", "key": {"ALS patients": {"test_system": "ALS patients", "conditions": "administered intraspinally to ALS patients; cited from earlier work"}, "[1]": {"conditions": "National Cancer Institute Report, 89, 1978; cited from earlier work"}, "Wobbler mice [2]": {"test_system": "Wobbler mice", "assay": "Forelimb deformity grading in Wobbler mice", "format": "in vivo, mouse", "conditions": "10 mg/kg orally, 4 weeks, vs control group (FIG. 1)", "text": "(§1) Wobbler mice (Ikeda K. et al., Ann. Neurol. vol. 34, p304, 1993; Mitsumoto H. et al., Ann. Neurol. vol. 36, pp142 to 148, 1994; Mitsumoto H. et al., Science, vol. 265, pp1107 to 1110, 1994) were used.\n(§2) At 3 to 4 weeks old, with the development of the symptom of body tremors, Wobbler mice were diagnosed with the onset of the disease. Immediately after being diagnosed to have the beginnings of the disease, the mice were orally administered with the drug of the present invention (3-methyl-1-phenyl-2-pirazoline-5-on; also referred to as MCI-186 in the drawings) (10 mg/kg), and the mice of a control group were administered with vehicles, by a blind test continually for 4 weeks. The administration of the drug was completed at 7 to 8 weeks old after birth, and the test was conducted with n=10 for each test group.\nThe degree of forelimb deformity was classified into four grades: 1 (paw atrophy), 2 (curled digits), 3 (curled wrists), and 4 (forelimb flexion to chest), and then evaluated. The progress from 1 to 4 means that the symptom became worse.\nThe scale of the degree of forelimb deformity was analyzed by the non-parametric Wilcoxon signed rank-sum test. Muscle strength, weight of biceps muscle, mean diameter of muscle fibers and number of motor neurons were statistically analyzed by unpaired Student's t-test. In all tests, the significance level of 5% was set for both sides."}, "Wobbler mice [3]": {"test_system": "Wobbler mice", "assay": "Weight and morphology of right brachial biceps muscle in Wobbler mice", "format": "in vivo, mouse", "conditions": "10 mg/kg orally, 4 weeks", "text": "as §1, §2\nAfter the end of drug administration, Wobbler mice (n=10 per group) were ether anesthetized, and then the right brachial biceps muscles were excised under dissecting microscope. The excised biceps muscles were correctly measured, and then frozen. […]\n(§3) The scale of the degree of forelimb deformity was analyzed by the non-parametric Wilcoxon signed rank-sum test. Muscle strength, weight of biceps muscle, mean diameter of muscle fibers and number of motor neurons were statistically analyzed by unpaired Student's t-test. […]"}, "Wobbler mice [4]": {"test_system": "Wobbler mice", "assay": "Number of spinal motor neurons in Wobbler mice", "format": "in vivo, mouse", "conditions": "10 mg/kg orally, 4 weeks, cervical spinal cord C5-6, vs control group (FIG. 4)", "text": "as §1, §2\nWobbler mice (n=10 per group) that had been used for morphological study on the right brachial biceps muscles were perfused via an intracardiac catheter with phosphate buffered saline, and then 4% paraformaldehyde/1% glutaraldehyde/0.1 M sodium phosphate buffer (pH 7.4). […]\nas §3"}, "Wobbler mice [5]": {"test_system": "Wobbler mice", "assay": "Forelimb grip strength in Wobbler mice", "format": "in vivo, mouse", "conditions": "10 mg/kg orally, 4 weeks, vs control group (FIG. 2)", "text": "as §1\nAt 3 to 4 weeks old, with the development of the symptom of body tremors, Wobbler mice were diagnosed with the onset of the disease. Immediately after being diagnosed to have the beginnings of the disease, the mice were orally administered with the drug of the present invention (3-methyl-1-phenyl-2-pirazoline-5-on; also referred to as MCI-186 in the drawings) (10 mg/kg), and the mice of a control group were administered with vehicles, by a blind test continually for 4 weeks. […]\nThe grip strength of the forelimb was measured (Ikeda et al., Neuromusc. Disord., 5, (1995), 383–390; K. Ikeda et al., J. Neurol. Sci., 160, (1998) 9–15; K. Ikeda et al., Neurosci. Lett., 250 (1998) 9–12; K. Ikeda et al., Muscle Nerve, 18 (1995) 1344–1347; K. Ikeda et al., Neurol. Res., 17 (1995) 445–448; K. Ikeda et al., Ann. Neurol., 37 (1995) 505–511; K. Ikeda et al., Brain Res., 726 (1996) 91–97; H. Mitsumoto et al., Ann. Neurol., 36 (1994) 142–148; and H. Mitsumoto et al., Science, 265 (1994) 1107–1110). […]\nThe scale of the degree of forelimb deformity was analyzed by the non-parametric Wilcoxon signed rank-sum test. […]"}, "mouse": {"test_system": "mouse", "conditions": "intraabdominal administration; cited from earlier work"}, "ALS": {"test_system": "ALS", "conditions": "some reported test results; cited from earlier work"}}}
{"compound": "human recombinant Cu/Zn SOD: human recombinant Cu/Zn superoxide dismutase administered intraspinally to ALS patients", "values": [{"measurement": "therapeutic effect in ALS patients", "setting": "ALS patients", "result": "effective therapeutic effects were not obtained"}]}
{"compound": "CC1=NN(c2ccccc2)C(=O)C1", "note": "[3-methyl-1-phenyl-2-pirazoline-5-on]", "values": [{"measurement": "carcinogenicity", "setting": "[1]", "result": "noncarcinogenicity"}, {"measurement": "degree of forelimb deformity (Grades 1 to 4)", "setting": "Wobbler mice [2]", "result": "the progress of muscle deformity was delayed"}, {"measurement": "mean diameter of muscle fibers (mean±SEM)", "setting": "Wobbler mice [3]; right brachial biceps, P<0.01 vs control 16.8±0.6 μm", "result": "20.3±0.8", "unit": "μm"}, {"measurement": "weight of the right brachial biceps muscle", "setting": "Wobbler mice [3]; vs control group (FIG. 3)", "result": "significantly increased"}, {"measurement": "number of spinal motor neurons", "setting": "Wobbler mice [4]", "result": "increased"}, {"measurement": "muscle strength of the forelimb (grip strength)", "setting": "Wobbler mice [5]", "result": "the decrease in muscle strength was delayed"}, {"measurement": "LD50", "setting": "mouse", "result": 2012, "unit": "mg/kg"}]}
{"compound": "Nc1nc2ccc(OC(F)(F)F)cc2s1", "note": "[riluzole]", "values": [{"measurement": "effectiveness against ALS", "setting": "ALS", "result": "effectiveness against ALS could not be confirmed"}]}
